Our source for the remaining binding values is publication PMC6576746, “Rational discovery of dual-indication multi-target PDE/Kinase inhibitor for precision anti-cancer therapy using structural systems pharmacology” (PLoS Computational Biology, 2019).

Molecules are shown by their SMILES.

What all share (assay): biochemical
What all share (parameters): DiscoverX KinomeScan competition binding assay across human kinases; per cent of control at 10 and 100 uM

Experiment [1] addresses CDK2 (Homo sapiens, UniProt P24941). The following applies: competition binding, % of control; read-out: Percent Control (100 uM Levosimendan). The method in brief:
(§1)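 Binding is expressed as %control, normalised between positive and negative control signals. The compound (levosimendan) was tested at 10 μM and 100 μM in the DiscoverX KinomeScan competition binding format against human kinases.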

Experiment [2] concerns the target AKT2 (Homo sapiens, UniProt P31751). The following applies: competition binding, % of control; read-out: Percent Control (100 uM Levosimendan). The method in brief:
as §1

For experiment [3], the target named is CSNK1A1 (Homo sapiens, UniProt P48729). The following applies: competition binding, % of control. The method in brief:
as §1

For experiment [4], the target named is TAOK1 (Homo sapiens, UniProt Q7L7X3). The note with it: competition binding, % of control; read-out: Percent Control (100 uM Levosimendan). In a few lines:
as §1

Experiment [5] has as its target NEK10 (Homo sapiens, UniProt Q6ZWH5). The following applies: competition binding, % of control; read-out: Percent Control (100 uM Levosimendan). The method in brief:
as §1

Experiment [6] deals with T1, GCN2(Kin.Dom.2,S808G) (Homo sapiens, UniProt Q9P2K8, S808G).
T1 construct: gene EIF2AK4; Kin.Dom.2
The note with it: competition binding, % of control; read-out: Percent Control (100 uM Levosimendan). In a few lines:
as §1

Experiment [7] has as its target T2, YANK1 (Homo sapiens, UniProt Q8WU08).
T2 construct: gene STK32A
The note with it: competition binding, % of control; read-out: Percent Control (100 uM Levosimendan). In a few lines: as §1

Experiment [8] addresses EPHA6 (Homo sapiens, UniProt Q9UF33). The note with it: competition binding, % of control; read-out: Percent Control (100 uM Levosimendan). The method in brief: as §1
In experiment [9] the target is CLK2 (Homo sapiens, UniProt P49760). The note with it: competition binding, % of control; read-out: Percent Control (100 uM Levosimendan). The method in brief:
as §1

Experiment [10] addresses TLK1 (Homo sapiens, UniProt Q9UKI8). The note with it: competition binding, % of control; read-out: Percent Control (100 uM Levosimendan). In a few lines:
as §1

The target of experiment [11] is T3, ADCK3 (Homo sapiens, UniProt Q8NI60).
T3 construct: gene COQ8A
The following applies: competition binding, % of control; read-out: Percent Control (100 uM Levosimendan). The method in brief: as §1

Experiment [12] addresses KIT (Homo sapiens, UniProt P10721). The note with it: competition binding, % of control. In a few lines: as §1
The target in experiment [13] is T4, YANK3 (Homo sapiens, UniProt Q86UX6).
T4 construct: gene STK32C
The following applies: competition binding, % of control; read-out: Percent Control (100 uM Levosimendan). In a few lines: as §1

Experiment [14] concerns the target T5, CAMK1B (Homo sapiens, UniProt Q6P2M8).
T5 construct: gene PNCK
The following applies: competition binding, % of control; read-out: Percent Control (100 uM Levosimendan). In a few lines:
as §1

Experiment [15] has as its target HIPK2 (Homo sapiens, UniProt Q9H2X6). The note with it: competition binding, % of control; read-out: Percent Control (100 uM Levosimendan). In a few lines: as §1
Experiment [16] deals with T6, IKK-alpha (Homo sapiens, UniProt O15111).
T6 construct: gene CHUK
The following applies: competition binding, % of control; read-out: Percent Control (100 uM Levosimendan). The method in brief:
as §1

For experiment [17], the target named is T7, ABL1(Q252H)-phosphorylated (Homo sapiens, UniProt P00519, Q252H).
T7 construct: phosphorylated
The note with it: competition binding, % of control; read-out: Percent Control (100 uM Levosimendan). The method in brief: as §1

Experiment [18] addresses TNK1 (Homo sapiens, UniProt Q13470). The note with it: competition binding, % of control; read-out: Percent Control (100 uM Levosimendan). The method in brief: as §1
Experiment [19] addresses NEK2 (Homo sapiens, UniProt P51955). The following applies: competition binding, % of control; read-out: Percent Control (100 uM Levosimendan). The method in brief:
as §1

The mark [20] stands for this setting: read-out: Percent Control (10 uM Levosimendan).
The mark [21] stands for this setting: read-out: Percent Control (100 uM Levosimendan).

Chain of CSNK1A1 (P48729 whole entry): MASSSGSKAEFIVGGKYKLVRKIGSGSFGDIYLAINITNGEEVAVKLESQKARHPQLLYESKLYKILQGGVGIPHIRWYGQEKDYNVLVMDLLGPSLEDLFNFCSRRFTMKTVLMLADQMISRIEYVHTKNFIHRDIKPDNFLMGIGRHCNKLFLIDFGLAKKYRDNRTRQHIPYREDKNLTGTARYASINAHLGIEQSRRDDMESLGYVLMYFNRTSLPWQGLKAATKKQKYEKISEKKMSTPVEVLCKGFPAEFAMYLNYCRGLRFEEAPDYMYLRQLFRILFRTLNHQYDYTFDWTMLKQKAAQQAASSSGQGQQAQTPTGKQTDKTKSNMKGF
Chain of KIT (P10721 whole entry): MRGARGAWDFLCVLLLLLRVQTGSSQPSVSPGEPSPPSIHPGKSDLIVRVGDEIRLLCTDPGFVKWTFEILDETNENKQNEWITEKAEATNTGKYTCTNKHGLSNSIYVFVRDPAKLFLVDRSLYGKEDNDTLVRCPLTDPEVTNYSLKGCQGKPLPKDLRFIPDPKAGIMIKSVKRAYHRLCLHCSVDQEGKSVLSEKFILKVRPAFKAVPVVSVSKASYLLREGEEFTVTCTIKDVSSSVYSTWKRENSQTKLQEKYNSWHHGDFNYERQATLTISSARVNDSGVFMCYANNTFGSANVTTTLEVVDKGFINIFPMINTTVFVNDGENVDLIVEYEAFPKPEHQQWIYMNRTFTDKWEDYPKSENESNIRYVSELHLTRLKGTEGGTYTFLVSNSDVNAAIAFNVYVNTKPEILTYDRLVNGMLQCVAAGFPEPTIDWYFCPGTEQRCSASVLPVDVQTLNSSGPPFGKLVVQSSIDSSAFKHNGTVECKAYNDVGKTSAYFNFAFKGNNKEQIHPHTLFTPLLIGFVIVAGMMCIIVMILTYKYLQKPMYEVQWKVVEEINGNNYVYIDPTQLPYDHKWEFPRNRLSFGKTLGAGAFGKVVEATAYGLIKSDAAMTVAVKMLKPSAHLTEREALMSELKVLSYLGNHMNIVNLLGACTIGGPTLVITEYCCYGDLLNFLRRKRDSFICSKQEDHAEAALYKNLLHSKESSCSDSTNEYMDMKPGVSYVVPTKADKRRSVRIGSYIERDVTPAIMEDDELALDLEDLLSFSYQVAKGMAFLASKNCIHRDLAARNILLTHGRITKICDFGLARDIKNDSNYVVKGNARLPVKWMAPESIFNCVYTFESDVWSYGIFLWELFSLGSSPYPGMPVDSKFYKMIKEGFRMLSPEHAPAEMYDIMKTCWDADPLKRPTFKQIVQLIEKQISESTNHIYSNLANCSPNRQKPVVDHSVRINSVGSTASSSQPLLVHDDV
Chain of HIPK2 (Q9H2X6 whole entry): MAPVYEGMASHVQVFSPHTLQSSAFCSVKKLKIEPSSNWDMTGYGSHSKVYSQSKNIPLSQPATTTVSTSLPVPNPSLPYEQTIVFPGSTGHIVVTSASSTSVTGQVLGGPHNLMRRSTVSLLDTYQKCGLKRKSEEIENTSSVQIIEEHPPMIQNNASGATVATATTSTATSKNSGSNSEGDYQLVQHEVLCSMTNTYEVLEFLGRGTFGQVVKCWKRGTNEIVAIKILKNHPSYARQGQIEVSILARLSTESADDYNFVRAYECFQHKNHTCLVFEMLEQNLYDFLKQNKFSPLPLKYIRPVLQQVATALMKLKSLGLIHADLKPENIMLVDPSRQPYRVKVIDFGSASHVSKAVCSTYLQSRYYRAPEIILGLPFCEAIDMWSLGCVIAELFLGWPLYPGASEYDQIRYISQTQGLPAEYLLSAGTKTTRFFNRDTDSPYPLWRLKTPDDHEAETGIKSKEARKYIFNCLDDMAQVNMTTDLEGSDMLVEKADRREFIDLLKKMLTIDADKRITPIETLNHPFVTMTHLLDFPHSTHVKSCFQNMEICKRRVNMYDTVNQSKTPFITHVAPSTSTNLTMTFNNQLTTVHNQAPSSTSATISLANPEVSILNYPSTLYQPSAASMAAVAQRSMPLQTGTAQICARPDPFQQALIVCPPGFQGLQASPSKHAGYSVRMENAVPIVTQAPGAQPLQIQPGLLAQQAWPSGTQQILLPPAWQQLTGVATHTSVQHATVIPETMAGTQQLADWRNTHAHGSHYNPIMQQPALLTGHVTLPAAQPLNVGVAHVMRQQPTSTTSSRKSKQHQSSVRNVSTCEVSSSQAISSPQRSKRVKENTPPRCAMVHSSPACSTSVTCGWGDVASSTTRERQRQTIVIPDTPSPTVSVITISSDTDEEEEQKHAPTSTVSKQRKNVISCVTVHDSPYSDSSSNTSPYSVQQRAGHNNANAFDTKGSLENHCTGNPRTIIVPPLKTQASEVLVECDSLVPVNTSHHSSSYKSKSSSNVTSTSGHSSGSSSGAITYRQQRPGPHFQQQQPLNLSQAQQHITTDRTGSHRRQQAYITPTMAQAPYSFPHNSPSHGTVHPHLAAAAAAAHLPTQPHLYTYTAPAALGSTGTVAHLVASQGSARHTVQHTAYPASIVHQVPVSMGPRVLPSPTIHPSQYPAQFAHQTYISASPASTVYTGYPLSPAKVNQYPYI
Chain of NEK2 (P51955 whole entry): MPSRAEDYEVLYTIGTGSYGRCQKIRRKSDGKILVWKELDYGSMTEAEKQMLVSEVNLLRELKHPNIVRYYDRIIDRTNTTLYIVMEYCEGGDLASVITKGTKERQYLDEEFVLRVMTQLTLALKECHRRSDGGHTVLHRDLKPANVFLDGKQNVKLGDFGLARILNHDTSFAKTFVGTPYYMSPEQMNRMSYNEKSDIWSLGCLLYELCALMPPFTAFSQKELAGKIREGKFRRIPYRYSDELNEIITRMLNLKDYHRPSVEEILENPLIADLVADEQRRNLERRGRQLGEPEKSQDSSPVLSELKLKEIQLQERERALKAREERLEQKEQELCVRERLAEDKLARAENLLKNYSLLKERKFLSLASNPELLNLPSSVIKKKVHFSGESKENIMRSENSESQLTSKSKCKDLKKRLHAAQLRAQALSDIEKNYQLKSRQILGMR
Chain of NEK10 (Q6ZWH5 whole entry): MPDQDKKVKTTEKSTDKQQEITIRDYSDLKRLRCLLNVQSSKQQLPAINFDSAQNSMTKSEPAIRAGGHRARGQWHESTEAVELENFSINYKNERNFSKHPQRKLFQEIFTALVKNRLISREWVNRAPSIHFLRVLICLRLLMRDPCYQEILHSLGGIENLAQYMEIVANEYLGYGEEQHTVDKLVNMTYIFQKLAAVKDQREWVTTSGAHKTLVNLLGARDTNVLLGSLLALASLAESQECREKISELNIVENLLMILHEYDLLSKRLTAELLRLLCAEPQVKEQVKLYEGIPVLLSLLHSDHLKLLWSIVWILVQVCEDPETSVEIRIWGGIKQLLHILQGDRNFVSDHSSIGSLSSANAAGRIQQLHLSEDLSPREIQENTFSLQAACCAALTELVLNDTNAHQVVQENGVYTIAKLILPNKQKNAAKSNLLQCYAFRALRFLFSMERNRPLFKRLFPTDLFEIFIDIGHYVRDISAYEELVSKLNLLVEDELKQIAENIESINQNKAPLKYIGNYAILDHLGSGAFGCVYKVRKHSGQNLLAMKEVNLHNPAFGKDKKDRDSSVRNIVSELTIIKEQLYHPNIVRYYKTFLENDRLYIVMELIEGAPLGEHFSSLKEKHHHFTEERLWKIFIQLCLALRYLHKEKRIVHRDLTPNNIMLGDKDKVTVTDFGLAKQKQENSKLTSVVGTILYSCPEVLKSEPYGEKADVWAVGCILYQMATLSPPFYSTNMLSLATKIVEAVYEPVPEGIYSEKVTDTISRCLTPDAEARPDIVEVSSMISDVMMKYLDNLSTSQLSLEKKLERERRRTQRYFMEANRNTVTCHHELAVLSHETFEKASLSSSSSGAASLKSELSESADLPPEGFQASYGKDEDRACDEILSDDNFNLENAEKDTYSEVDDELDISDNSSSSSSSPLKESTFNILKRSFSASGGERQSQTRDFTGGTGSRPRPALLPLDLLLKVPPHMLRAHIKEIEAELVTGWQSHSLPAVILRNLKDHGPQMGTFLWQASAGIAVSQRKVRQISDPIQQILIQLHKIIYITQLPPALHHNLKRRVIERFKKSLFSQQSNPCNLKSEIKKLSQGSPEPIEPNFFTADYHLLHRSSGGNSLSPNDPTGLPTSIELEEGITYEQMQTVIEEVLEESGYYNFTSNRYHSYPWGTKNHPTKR
Chain of CLK2 (P49760 whole entry): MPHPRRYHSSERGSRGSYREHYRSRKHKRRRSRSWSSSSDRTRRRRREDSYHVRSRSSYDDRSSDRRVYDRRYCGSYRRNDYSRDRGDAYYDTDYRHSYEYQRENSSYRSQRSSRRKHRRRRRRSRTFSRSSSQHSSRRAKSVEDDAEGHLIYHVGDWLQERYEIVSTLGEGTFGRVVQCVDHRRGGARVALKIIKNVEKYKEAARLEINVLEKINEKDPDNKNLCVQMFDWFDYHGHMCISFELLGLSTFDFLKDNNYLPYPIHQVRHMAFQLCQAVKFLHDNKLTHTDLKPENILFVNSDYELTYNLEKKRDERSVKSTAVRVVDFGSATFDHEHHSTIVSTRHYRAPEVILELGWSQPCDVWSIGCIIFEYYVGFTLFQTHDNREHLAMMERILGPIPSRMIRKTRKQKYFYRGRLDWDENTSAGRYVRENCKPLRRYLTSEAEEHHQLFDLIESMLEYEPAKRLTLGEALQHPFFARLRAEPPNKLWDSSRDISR
T5 sequence (Q6P2M8 whole entry): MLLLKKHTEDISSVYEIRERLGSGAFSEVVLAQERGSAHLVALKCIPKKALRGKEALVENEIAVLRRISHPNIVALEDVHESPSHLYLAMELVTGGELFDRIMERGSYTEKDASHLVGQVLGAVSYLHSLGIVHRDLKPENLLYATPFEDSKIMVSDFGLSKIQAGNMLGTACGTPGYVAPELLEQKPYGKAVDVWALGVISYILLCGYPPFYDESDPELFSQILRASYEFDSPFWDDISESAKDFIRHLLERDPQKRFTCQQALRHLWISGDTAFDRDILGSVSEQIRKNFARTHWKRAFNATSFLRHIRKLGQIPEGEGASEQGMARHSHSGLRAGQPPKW

Consider `C[C@@H]1CC(=O)NN=C1c1ccc(NN=C(C#N)C#N)cc1` [levosimendan], for which the remaining binding at 100 µM worked out at 97% in experiment [1]; 64% in [2]; 42% in experiment [3] (setting [21]); 100% in experiment [4]; 100% in experiment [5]; 100% in experiment [6]. The remaining binding at 100 µM in experiment [7] amounted to 94%; in experiment [8], 98%; in experiment [9] it was 69%; in experiment [10], 100%; in experiment [11], 57%; in experiment [12] (setting [21]), 3.5%. Moreover, the remaining binding at 100 µM amounted to 73% in experiment [13]; 100% in experiment [14]; 69% in experiment [15]; 59% in experiment [16]; 68% in experiment [17]; 100% in [18]. Also, the remaining binding at 100 µM in experiment [19] amounted to 96%. Further, the remaining binding at 10 µM in [3] (setting [20]) is 98%; in [12] (setting [20]), 26%.
